Assay in all cases: Heterologous whole cell competition binding
Holding throughout (conditions): heterologous competition of 125I-sCT(8-32), whole cells, mean ± S.E.M., SEM

Assay [1] deals with T1, hCTR D373A (Homo sapiens, UniProt P30988, D373A).
T1 construct: c-Myc (N); expressed in transfected cells
T1 sequence (P30988 25-474 D373A): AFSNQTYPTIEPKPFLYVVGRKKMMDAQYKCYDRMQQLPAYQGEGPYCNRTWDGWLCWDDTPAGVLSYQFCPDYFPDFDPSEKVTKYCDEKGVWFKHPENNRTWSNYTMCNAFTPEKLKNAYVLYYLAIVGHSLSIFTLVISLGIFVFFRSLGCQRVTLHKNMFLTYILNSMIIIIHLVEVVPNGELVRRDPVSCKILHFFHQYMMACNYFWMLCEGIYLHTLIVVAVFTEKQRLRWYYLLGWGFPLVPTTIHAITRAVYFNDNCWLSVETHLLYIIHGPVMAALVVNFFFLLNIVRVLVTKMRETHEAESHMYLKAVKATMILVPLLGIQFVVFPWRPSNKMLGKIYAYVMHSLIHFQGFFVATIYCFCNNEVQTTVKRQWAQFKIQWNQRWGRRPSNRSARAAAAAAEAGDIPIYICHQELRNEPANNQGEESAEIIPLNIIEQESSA
In a few lines:
(§1)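 Steps: overnight co-incubation of cells, tracer and test ligand; washout of unbound label; gamma counting; Cheng-Prusoff conversion to pKi.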

Assay [2] deals with T2, hCTR H296A (Homo sapiens, UniProt P30988, H296A).
T2 construct: c-Myc (N); expressed in transfected cells
T2 sequence (P30988 25-474 H296A): T1 sequence (P30988 25-474 D373A) with H272A, A349D
The procedure, abridged: as §1

In assay [3] the target is T3, hCTR L298A (Homo sapiens, UniProt P30988, L298A).
T3 construct: c-Myc (N); expressed in transfected cells
T3 sequence (P30988 25-474 L298A): T1 sequence (P30988 25-474 D373A) with L274A, A349D
The procedure, abridged:
as §1

The target in assay [4] is T4, hCTR S292A (Homo sapiens, UniProt P30988, S292A).
T4 construct: expressed in transfected cells
T4 sequence (P30988 25-474 S292A): T1 sequence (P30988 25-474 D373A) with S268A, A349D
In a few lines:
as §1

Assay [5] has as its target T5, hCTR WT (Homo sapiens, UniProt P30988).
T5 construct: expressed in transfected cells
T5 sequence (P30988 25-474): T1 sequence (P30988 25-474 D373A) with A349D
In a few lines:
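Overnight competition on intact cells; free ligand washed off; gamma counting. pKi via Cheng-Prusoff correction for radioligand occupancy.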

Changes are numbered by the printed parent chain. Where a SMILES comes first, the peptide text is derived from it. Bridges are numbered along the chain shown (N, C = ends).

For the compound `CSCC[C@H](NC(=O)CNC(=O)[C@H](CO)NC(=O)[C@H](Cc1ccccc1)NC(=O)[C@H](CCCNC(=N)N)NC(=O)[C@H](Cc1c[nH]cn1)NC(=O)[C@H](Cc1ccccc1)NC(=O)[C@H](CC(N)=O)NC(=O)[C@H](CC(N)=O)NC(=O)[C@H](CC(C)C)NC(=O)[C@H](CC(N)=O)NC(=O)[C@H](CCCNC(=N)N)NC(=O)[C@H](Cc1c[nH]c2ccccc12)NC(=O)[C@H](Cc1ccc(O)cc1)NC(=O)[C@H](C)NC(=O)[C@H](CO)NC(=O)[C@H](CC(C)C)NC(=O)[C@@H](NC(=O)[C@@H]1CSSC[C@H](N)C(=O)N[C@@H](CO)C(=O)N[C@@H](CC(N)=O)C(=O)N[C@@H](CC(C)C)C(=O)N[C@@H](CO)C(=O)N[C@@H]([C@@H](C)O)C(=O)N1)C(C)C)C(=O)NCC(=O)N[C@@H](Cc1ccccc1)C(=O)NCC(=O)N1CCC[C@H]1C(=O)N[C@@H](CCC(=O)O)C(=O)N[C@H](C(=O)N1CCC[C@H]1C(N)=O)[C@@H](C)O` [pCT] (H-CSNLSTCVLSAYWRNLNNFHRFSGMGFGPETP-NH2; disulfide 1-7), the inhibition constant Ki – broadly, a dissociation constant, usually derived from enzyme kinetics or from competition with a known ligand – in assay [1] was 17.4 nM; in assay [2], 8.51 nM; in assay [3] it was 20.4 nM; in assay [4], 2.88 nM; in assay [5] it was 5.37 nM.
